We go through 22 molecules from patent US20210070747A1, “2(1H)-QUINOLINONE DERIVATIVE” (priority 2017, published 2021).

In brackets after ≈: the same amount, converted by molar mass. Like-named read-outs stand apart in the source and are kept apart here. Where only a bound is given, the exact number is not on record here.

One assay deals with E. Coli ATCC 25922. Briefly: Test for evaluating antibacterial activity (E. coli), broth microdilution MIC. It counts as cell-based. The following applies: Escherichia coli, ATCC25922; 35° C., 18 hours, cation-adjusted Mueller-Hinton medium. As for the experimental part:
Minimum inhibitory concentration (MIC) was measured using the broth microdilution method described below in accordance with a modification of the standard method specified by CLSI (Clinical & Laboratory Standards Institute).
Bacterial cells under test were cultured overnight on a heart infusion agar medium, scraped off and suspended at a concentration equivalent to McFarland 0.5 turbidity; the suspension thus obtained was diluted 10 folds to give a liquid inoculum. The inoculum (0.005 mL) was inoculated on a cation-adjusted Mueller-Hinton medium containing the analyte compound and cultured at 35° C. for 18 hours. A minimum drug concentration at which no bacterial growth was macroscopically visible was designated MIC.

In assay [1] the test system is N. gonorrhoeae ATCC 49226. As to the kind of experiment: Test for evaluating antibacterial activity (N. gonorrhoeae), broth microdilution MIC. The note with it: Neisseria gonorrhoeae, ATCC49226; 35° C., 24 hours, gonococcal broth. It counts as cell-based. As for the experimental part: Minimum inhibitory concentration (MIC) was measured using the broth microdilution method described below in accordance with a modification of the method of Geers et al. (Antimicrob. Agents. Chemother. (1989), 33, 233-234).
After sterilization, BD. Difco supplement C was added to give a final concentration of 1%, whereby a gonococcal broth was prepared.
Bacterial cells under test were cultured overnight on a chocolate II agar medium, scraped off and suspended at a concentration equivalent to McFarland 0.5 turbidity; the suspension thus obtained was diluted 5 folds to give a liquid inoculum. The inoculum (0.005 mL) was inoculated on a gonococcal broth containing the analyte compound and cultured at 35° C. for 24 hours. A minimum drug concentration at which no bacterial growth was macroscopically visible was designated MIC.
A general note: Dilution methods test growth across graded concentrations, often in twofold steps.

The target of another assay is T1, E. coli DNA gyrase (Escherichia coli, UniProt P0AES6).
T1 construct: made in house; host or cells: E. coli BL21 (DE3)
As to the kind of experiment: Test for evaluating the activity of inhibiting E. coli DNA gyrase enzyme (Method 2, supercoiling, recombinant gyrA/gyrB complex). It counts as biochemical. As for the experimental part:
The enzymatic activity of E. coli DNA gyrase was measured by a method comprising reacting DNA gyrase and its substrate, relaxed pBR322 (Inspiralis), in the presence of ATP and detecting the post-reaction supercoiled pBR322/relaxed pBR322 ratio with H19.
Specifically, to 1 ng/μL of relaxed pBR322, E. coli DNA gyrase enzyme (the gyrA or gyrB gene was incorporated into the pET15b plasmid and after expressing them in E. coli BL21 (DE3), purification was performed using a Ni-NTA column to form a complex at room temperature) was added at a final concentration of 0.135 nmol/mL and the mixture was incubated for 60 minutes at room temperature. This reaction was carried out in 20 mmol/L tris-HCl buffered solution (pH 8.0) comprising 0.5 mmol/L ATP, 0.005% bridge 35, 35 mmol/L ammonium acetate, 8 mmol/L magnesium chloride, 4.6% glycerol, and 1 mmol/L dithiothreitol. To the reaction mixture, H19 was added to bring the reaction to an end; thereafter, the supercoiled pBR322/relaxed pBR322 ratio was detected at excitation wavelength/emission wavelength=485 nm/535 nm. An inhibition curve was obtained by allowing the analyte compound to be present at varying concentrations during the reaction described above.

Setting [2] is: Method 2, read-out: E. Coli Gyrase supercoiling IC50.

`CNc1cccc2cc(C(=O)NCc3ccc(C(=O)O)cc3)c(=O)[nH]c12` [Example 6, 4-({[8-(methylamino)-2-oxo-1,2-dihydroquinoline-3-carbonyl]amino}methyl)benzoic acid]: the MIC (commonly the smallest concentration in the dilution series that meets the test's criterion for growth inhibition) in the assay with E. Coli ATCC 25922 was > 64 µg/mL; in assay [1], 4 µg/mL (≈ 11.4 µM).

Consider `CNc1cc(F)cc2cc(C(=O)Nc3ccc(C(=O)O)cc3N(C)C3CCCCC3)c(=O)[nH]c12` [Example 114, 3-[Cyclohexyl(methyl)amino]-4-[[6-fluoro-8-(methylamino)-2-oxo-1,2-dihydroquinoline-3-carbonyl]amino]benzoic Acid], for which the MIC in the assay on E. Coli ATCC 25922 is > 32 µg/mL. The IC50 (commonly the concentration that gives 50% inhibition) on E. coli DNA gyrase (setting [2]) stood at 339 nM.

On to `CNc1cc(F)cc2cc(C(=O)Nc3ccc(C(=O)O)cc3CCN(C)C)c(=O)[nH]c12` [Example 115, 3-[2-(dimethylamino)ethyl]-4-{[6-fluoro-8-(methylamino)-2-oxo-1,2-dihydroquinoline-3-carbonyl]amino} benzoic acid], for which, in the assay with E. Coli ATCC 25922, the MIC is > 4 µg/mL. Besides, the IC50 on E. coli DNA gyrase (setting [2]) is 4.57 nM.

Consider `CNc1cc(F)cc2cc(C(=O)Nc3ccc(C(=O)O)cc3/C=C/CCO)c(=O)[nH]c12` [Example 119, 4-[[6-Fluoro-8-(methylamino)-2-oxo-1,2-dihydroquinoline-3-carbonyl]amino]-3-[(1E)-4-hydroxybut-1-en-1-yl]benzoic Acid], for which, in the assay on E. Coli ATCC 25922, the MIC is > 64 µg/mL. The IC50 on E. coli DNA gyrase (setting [2]) worked out at 20.6 nM.

`CNc1cc(F)cc2cc(C(=O)Nc3ccc(C(=O)O)cc3CCCCO)c(=O)[nH]c12` [Example 120, 4-[[6-Fluoro-8-(methylamino)-2-oxo-1,2-dihydroquinoline-3-carbonyl]amino]-3-(4-hydroxybutyl)benzoic Acid]: the MIC in the assay on E. Coli ATCC 25922 is > 32 µg/mL. For the same molecule, on E. coli DNA gyrase (setting [2]), the IC50 came to 32.5 nM.

As to `CNc1cc(F)cc2cc(C(=O)Nc3ccc(C(=O)O)cc3/C=C/CCN(C)C)c(=O)[nH]c12.Cl` [Example 125, 3-[(1E)-4-(dimethylamino)but-1-en-1-yl]-4-{[6-fluoro-8-(methylamino)-2-oxo-1,2-dihydroquinoline-3-carbonyl]amino}benzoic acid-hydrochloride], in the assay with E. Coli ATCC 25922, the MIC is > 32 µg/mL. Moreover, the IC50 at E. coli DNA gyrase was found to be 24.6 nM.

Take `CNc1cc(F)cc2cc(C(=O)Nc3ccc(C(=O)O)cc3CCCCN(C)C)c(=O)[nH]c12` [Example 126, 3-[4-(dimethylamino)butyl]-4-{[6-fluoro-8-(methylamino)-2-oxo-1,2-dihydroquinoline-3-carbonyl]amino}benzoic acid]: the MIC with E. Coli ATCC 25922 is > 8 µg/mL. Besides, at E. coli DNA gyrase (setting [2]), the IC50 was 22 nM.

On to `CCOC(=O)c1ccc(NC(=O)c2c(O)c3cc(F)cc(NC)c3[nH]c2=O)cc1` [Example 127, Ethyl 4-[[6-fluoro-4-hydroxy-8-(methylamino)-2-oxo-1,2-dihydroquinoline-3-carbonyl]amino]benzoate], for which the MIC in the assay on E. Coli ATCC 25922 was > 16 µg/mL. The IC50 at E. coli DNA gyrase (setting [2]) is 214 nM.

With `CNc1cc(F)cc2cc(CNc3ccc(C(=O)O)cc3CN(C)C3CCCCC3)c(=O)[nH]c12` [Example 128, 3-[[Cyclohexyl(methyl)amino]methyl]-4-([[6-fluoro-8-(methylamino)-2-oxo-1,2-dihydroquinolin-3-yl]methyl]amino)benzoic Acid], the MIC in the assay on E. Coli ATCC 25922 was > 16 µg/mL. For the same molecule, at E. coli DNA gyrase (setting [2]), the IC50 is 340 nM.

As to `CNCCc1c(C(=O)Nc2ccc(C(=O)O)cc2)c(=O)[nH]c2c(NC)cc(F)cc12.O=C(O)C(F)(F)F` [Example 130, 4-([6-Fluoro-8-(methylamino)-4-[2-(methylamino)ethyl]-2-oxo-1,2-dihydroquinoline-3-carbonyl]amino)benzoic acid-trifluoroacetate], the MIC in the assay with E. Coli ATCC 25922 is > 8 µg/mL. Moreover, the IC50 on E. coli DNA gyrase was 109 nM.

`CNc1cc(F)cc2c(NCCN)c(C(=O)Nc3ccc(C(=O)O)cc3)c(=O)[nH]c12.O=CO` [Example 131, 4-([4-[(2-Aminoethyl)amino]-6-fluoro-8-(methylamino)-2-oxo-1,2-dihydroquinoline-3-carbonyl]amino)benzoic Acid-Formate]: the MIC in the assay on E. Coli ATCC 25922 is > 16 µg/mL. In addition, on E. coli DNA gyrase, the IC50 turned out to be 0.94 nM.

As to `CNCCCc1c(C(=O)Nc2ccc(C(=O)O)cc2)c(=O)[nH]c2c(NC)cc(F)cc12.O=C(O)C(F)(F)F` [Example 134, 4-([6-Fluoro-8-(methylamino)-4-[3-(methylamino)propyl]-2-oxo-1,2-dihydroquinoline-3-carbonyl]amino)benzoic Acid-Trifluoroacetate], the MIC with E. Coli ATCC 25922 is > 32 µg/mL. For the same molecule, the IC50 at E. coli DNA gyrase came out at 131 nM.

Regarding `CNc1cc(F)cc2c(NC[C@H]3C[C@H](N)C3)c(C(=O)Nc3ccc(C(=O)O)cc3)c(=O)[nH]c12.O=CO` [Example 136, 4-{[4-{[(trans-3-aminocyclobutyl)methyl]amino}-6-fluoro-8-(methylamino)-2-oxo-1,2-dihydroquinoline-3-carbonyl]amino}benzoic acid-formate], in the assay on E. Coli ATCC 25922, the MIC was > 32 µg/mL. Further, the IC50 on E. coli DNA gyrase was determined as 1.28 nM.

Consider `CNc1cc(F)cc2c(NCC3CCNCC3)c(C(=O)Nc3ccc(C(=O)O)cc3)c(=O)[nH]c12.O=CO` [Example 137, 4-{[6-fluoro-8-(methylamino)-2-oxo-4-{[(piperidine-4-yl)methyl]amino}-1,2-dihydroquinoline-3-carbonyl]amino}benzoic acid-formate], for which, in the assay on E. Coli ATCC 25922, the MIC was > 32 µg/mL. The half-inhibitory concentration (IC50) at E. coli DNA gyrase was found to be 1.31 nM.

For `CNc1cc(F)cc2c(NC3CC34CCNCC4)c(C(=O)Nc3ccc(C(=O)O)cc3)c(=O)[nH]c12.O=CO` (centres unmarked) [Example 139, 4-({4-[(6-azaspiro[2.5]octane-1-yl)amino]-6-fluoro-8-(methylamino)-2-oxo-1,2-dihydroquinoline-3-carbonyl}amino)benzoic acid-formate], in the assay with E. Coli ATCC 25922, the MIC was > 64 µg/mL. The 50% inhibitory concentration (IC50) at E. coli DNA gyrase came out at 6.94 nM.

Consider `CNc1cc(F)cc2c(NCC3(N)CCC3)c(C(=O)Nc3ccc(C(=O)O)cc3)c(=O)[nH]c12.O=CO` [Example 140, 4-{[4-{[(1-aminocyclobutyl)methyl]amino}-6-fluoro-8-(methylamino)-2-oxo-1,2-dihydroquinoline-3-carbonyl]amino}benzoic acid-formate], for which the MIC with E. Coli ATCC 25922 was > 32 µg/mL. In addition, the IC50 on E. coli DNA gyrase was 2.15 nM.

Regarding `CNCCNc1c(C(=O)Nc2ccc(C(=O)O)cc2)c(=O)[nH]c2c(NC)cc(F)cc12.O=CO` [Example 141, 4-{[6-fluoro-8-(methylamino)-4-{[2-(methylamino)ethyl]amino}-2-oxo-1,2-dihydroquinoline-3-carobnyl]amino}benzoic acid-formate], the MIC against E. Coli ATCC 25922 was > 16 µg/mL. Also, the IC50 on E. coli DNA gyrase was 2.09 nM.

Turning to `CNc1cc(F)cc2c(N[C@H]3C[C@@H](N)C3)c(C(=O)Nc3ccc(C(=O)O)cc3)c(=O)[nH]c12` [Example 142, 4-({4-[(cis-3-aminocyclobutyl)amino]-6-fluoro-8-(methylamino)-2-oxo-1,2-dihydroquinoline-carbonyl}amino) 3-benzoic acid-formate], in the assay on E. Coli ATCC 25922, the MIC was > 32 µg/mL. For the same molecule, the IC50 on E. coli DNA gyrase (setting [2]) was 2.66 nM.

Take `CNc1cc(F)cc2c(NCCN3CCOCC3)c(C(=O)Nc3ccc(C(=O)O)cc3)c(=O)[nH]c12.O=CO` [Example 143, 4-{[6-fluoro-8-(methylamino)-4-{[2-(morpholine-4-yl)ethyl]amino}-2-oxo-1,2-dihydroquinoline-3-carbonyl]amino}benzoic acid-formate]: in the assay on E. Coli ATCC 25922, the MIC is > 64 µg/mL. Besides, on E. coli DNA gyrase, the IC50 was 14.6 nM.

As to `CNc1cccc2cc(C(=O)Nc3ccc(CC(=O)O)cc3)c(=O)[nH]c12` [Example 166, (4-{[8-(methylamino)-2-oxo-1,2-dihydroquinoline-3-carbonyl]amino}phenyl)acetic acid], the MIC against E. Coli ATCC 25922 was > 16 µg/mL. Moreover, at E. coli DNA gyrase (setting [2]), the IC50 was found to be 18.1 nM.

Turning to `CNc1cccc2cc(C(=O)NCCc3ccc(C(=O)O)cc3)c(=O)[nH]c12` [Example 167, 4-(2-{[8-(methylamino)-2-oxo-1,2-dihydroquinoline-3-carbonyl]amino}ethyl)benzoic acid], the MIC against E. Coli ATCC 25922 was > 32 µg/mL. Besides, the IC50 at E. coli DNA gyrase (setting [2]) was 134 nM.

Consider `CNc1cccc2cc(C(=O)NCc3cccc(C(=O)O)c3)c(=O)[nH]c12` [Example 168, 3-({[8-(methylamino)-2-oxo-1,2-dihydroquinoline-3-carbonyl]amino}methyl)benzoic acid], for which the MIC against E. Coli ATCC 25922 was > 32 µg/mL. Also, the IC50 on E. coli DNA gyrase (setting [2]) amounted to 1670 nM.
